The record followed here is patent US20240324599A1, “PESTICIDAL ENZYMES FOR USE ON NEMATODES, INSECTS, AND MOLLUSKS” (priority 2023, published 2024).

The test system of the test is corn. The test is described as follows: Field trial: esterase on urea with or without NBPT, corn yield. The format is in vivo. To be noted: corn, NBPT 64 fl oz/ton on Urea (135 lb/A Nitrogen), no EstA. As to the method: Esterase A (EstA) from Bacillus subtilis (SEQ ID NO:254) was produced via fermentation of a recombinantly produced enzyme in Bacillus subtilis. 1, 2, or 3 fl oz of fermentation product was applied onto 135 lb N/A (nitrogen equivalent per acre) urea fertilizer in a concrete mixer, and allowed to mix for 1 minute. A urea control treatment without fermentation media was also created. An addition treatment that contained 64 fl oz/ton N-Butyl-thiophosphoric triamide (NBPT) nitrogen stabilizer or 64 fl oz/ton NBPT nitrogen stabilizer with 3 fl oz/A EstA fermentation product was also included in the trial. Urea, alone or with fermentation media was distributed across 4 small replicated plots each prior to planting of corn with 4 replicates of 400 ft2 each at each site.

Regarding `CCCCNP(N)(N)=S` [NBPT, N-Butyl-thiophosphoric triamide, reference compound], the Yield is on record as 191.2 Bu/A (base control 188.2) and 12022.3 Kg/ha (base control 11830.4).
